One series has as its target Substance-P receptor (Homo sapiens, UniProt P25103). Kind of series: Ability to displace [125I]-labeled substance P from human cloned Tachykinin receptor 1 in CHO cells. It is filed as cell-based.
The subject of series [1] is Gerbillinae. Kind of series: In vivo percent inhibition of gerbil foot tapping 0 hours after iv administration of 1 mg/kg. It is filed as functional.
In series [2] the test system is Gerbillinae. Kind of series: In vivo percent inhibition of gerbil foot tapping 2 hours after iv administration of 1 mg/kg. It is filed as functional.
The test system of series [3] is Gerbillinae. Kind of series: In vivo percent inhibition of gerbil foot tapping 2 hours after iv administration of 3 mg/kg. It is filed as functional.
Series [4] has as its system Gerbillinae. As to the kind of experiment: In vivo percent inhibition of gerbil foot tapping 0 hours after iv administration of 3 mg/kg. It is filed as functional.
The nature of series [5]: Oral bioavailability in rat. It is filed as ADME, organism-based. As to conditions: in vivo.
The nature of series [6]: Steady state volume of distribution determined in rat. It is filed as ADME, organism-based. As to conditions: in vivo, read-out: Vss.
Series [7] can be described thus: Time for maximum plasma concentration determined in rat. It is filed as ADME, organism-based.
The test system of series [8] is Gerbillinae. As to the kind of experiment: Inhibitory dose against gerbil foot tapping 2 hours after iv administration. It is filed as functional.
The nature of series [9]: Half life of compound determined in rat. It is filed as ADME, organism-based. The note with it: in vivo, read-out: Time (converted).
Series [10] can be described thus: Maximum plasma concentration determined in rat. It is filed as ADME, organism-based.
The nature of series [11]: Mean residence time determined in rat. It is filed as ADME, organism-based. The note with it: in vivo, read-out: Time.
The subject of series [12] is Gerbillinae. Kind of series: In vivo percent inhibition of gerbil foot tapping 0 hours after iv administration at 3 mg/kg. It is filed as functional.
Series [13] in a line: Plasma half life determined in rat. As to conditions: read-out: Time (converted). It is filed as ADME, organism-based.
Series [14] is described as follows: Plasma clearance rate determined in rat. It is filed as ADME, organism-based.

Several values for one entry are separate records, joined by “and”; a condition that tells them apart may be missing. Identical values can stand only once.

Chain of Substance-P receptor (P25103 whole entry): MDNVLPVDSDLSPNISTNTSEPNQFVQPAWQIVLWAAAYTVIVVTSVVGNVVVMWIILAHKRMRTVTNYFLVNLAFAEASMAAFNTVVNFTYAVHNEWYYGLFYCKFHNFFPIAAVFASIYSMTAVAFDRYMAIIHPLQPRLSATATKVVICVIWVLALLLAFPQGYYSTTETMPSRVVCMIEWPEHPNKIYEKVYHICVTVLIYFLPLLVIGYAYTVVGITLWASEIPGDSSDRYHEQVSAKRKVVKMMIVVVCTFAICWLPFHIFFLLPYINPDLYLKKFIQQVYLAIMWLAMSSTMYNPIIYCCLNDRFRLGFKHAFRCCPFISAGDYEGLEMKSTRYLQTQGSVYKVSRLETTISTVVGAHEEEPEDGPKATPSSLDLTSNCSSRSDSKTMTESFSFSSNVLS

Regarding `CC(=O)C1(c2ccccc2)CCN(C(=O)CCc2c(-c3ccc(Cl)cc3)n(C)c3ccc(Cl)cc23)CC1`, at Substance-P receptor, the IC50 was determined as 0.53 nM.
Take `CN(C(=O)CN1CCN(C(=O)CCc2c(-c3ccc(Cl)cc3)n(C)c3ccc(Cl)cc23)CC1)c1ccccc1`: the inhibition in vivo at 1 mg/kg came out at 87% with Gerbillinae [1] and 6% in the series with Gerbillinae [2]. At Substance-P receptor, this molecule showed an IC50 of 0.13 nM.
`Cn1c(-c2ccc(Cl)cc2)c(CCC(=O)N2CCN(Cc3ccccc3)C(=O)C2)c2cc(Cl)ccc21` showed an IC50 at Substance-P receptor of 0.39 nM.
Turning to `Cn1c(-c2ccc(Cl)cc2)c(CCC(=O)N2CCN(CC(C)(C)C)CC2)c2cc(Cl)ccc21`, the IC50 on Substance-P receptor worked out at 2 nM.
For `Cn1c(-c2ccc(Cl)cc2)c(CCC(=O)N2CCN(Cc3ccccc3)CC2)c2cc(Cl)ccc21`, the results for the inhibition in vivo at 3 mg/kg with Gerbillinae [3] and in the series with Gerbillinae [4] were 17% and 100%, respectively. Besides, the IC50 at Substance-P receptor turned out to be 0.3 nM.
`Cn1c(-c2ccc(Cl)cc2)c(CCC(=O)N2CCC(Cc3ccccc3)CC2)c2cc(Cl)ccc21`: at Substance-P receptor, the IC50 is 2.2 nM.
In turn, `Cn1c(-c2ccc(Cl)cc2)c(CCC(=O)N2CCC(O)(Cc3ccccc3)CC2)c2cc(Cl)ccc21` registered an IC50 on Substance-P receptor of 0.21 nM. This molecule also had a bioavailability in [5] of 3%. Besides, the Vd in [6] came out at 3.5 L/kg. In addition, in series [7], the Tmax was 1.2 h. Besides, the ID50 with Gerbillinae [8] was 0.3 mg/kg and 0.9 mg/kg. The half-life in series [9] is 3.1 h. In [10], this molecule came in with a Cmax of 4 ng/mL. For the same molecule, the MRT in series [11] worked out at 1.8 h.
As for `Cn1c(-c2ccc(Cl)cc2)c(CCC(=O)N2CCN(C3CCCCC3)CC2)c2cc(Cl)ccc21`, the results for the inhibition in vivo at 3 mg/kg with Gerbillinae [3] and with Gerbillinae [4] were 7% and 100%, respectively. In addition, on Substance-P receptor, the IC50 amounted to 0.35 nM.
In the case of `CCC(=O)N(c1ccccc1)C1CCN(C(=O)CCc2c(-c3ccc(Cl)cc3)n(C)c3ccc(Cl)cc23)CC1`, the Inhibition came out at 50% in the series on Gerbillinae [3] and 100% with Gerbillinae [4]. The same molecule yielded an IC50 at Substance-P receptor of 0.16 nM.
Molecule `COc1ccccc1N1CCN(C(=O)CCc2c(-c3ccc(Br)cc3)[nH]c3ccc(C)cc23)CC1` returned a bioavailability in [5] of 3%. The Vd in series [6] is 9.5 L/kg. In the series with Gerbillinae [12], at 3 mg/kg the inhibition in vivo was 46%. Moreover, the Tmax in series [7] came out at 1.1 h. In addition, in series [13], the half-life is 1.4 h. Moreover, the peak level in [10] (Cmax) was 2 ng/mL. The molecule further had a clearance in [14] of 179 mL/min/kg. In series [11], the MRT was 0.9 h.
On Substance-P receptor, `Cn1c(-c2ccc(Cl)cc2)c(CCC(=O)N2CCN(CC3CC3)CC2)c2cc(Cl)ccc21` gave an IC50 of 0.78 nM.
Still for that read-out and setting: under `CC(C)N1CCN(C(=O)CCc2c(-c3ccc(Cl)cc3)n(C)c3ccc(Cl)cc23)CC1` stands 13 nM; under `Cn1c(-c2ccc(Cl)cc2)c(CCC(=O)N2CCN(CC(=O)Nc3ccccc3)CC2)c2cc(Cl)ccc21`, 30 nM; under `Cn1c(-c2ccc(Cl)cc2)c(CCC(=O)N2CCC(Nc3ccccc3)CC2)c2cc(Cl)ccc21`, 1.3 nM.
For the molecule `Cn1c(-c2ccc(Cl)cc2)c(CCC(=O)N2CCC(F)(Cc3ccccc3)CC2)c2cc(Cl)ccc21`, the IC50 at Substance-P receptor came to 0.55 nM.
The molecule `Cn1c(-c2ccc(Cl)cc2)c(CCC(=O)N2CCN(CC3CCCCC3)CC2)c2cc(Cl)ccc21` showed an IC50 at Substance-P receptor of 2.9 nM.
`Cn1c(-c2ccc(Cl)cc2)c(CCC(=O)N2CCC(CO)(c3ccccc3)CC2)c2cc(Cl)ccc21` displayed an IC50 on Substance-P receptor of 55 nM.
Consider `CC(C)CCN1CCN(C(=O)CCc2c(-c3ccc(Cl)cc3)n(C)c3ccc(Cl)cc23)CC1`, for which, on Substance-P receptor, the IC50 came to 0.34 nM.
